Experimental data published in PubChem BioAssay (NCI).
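Following 48 hours of exposure in 96-well plates, responses at five concentrations were used to interpolate endpoints linearly. TGI marks complete inhibition of growth.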

How the values were obtained:
Test in all cases: NCI-60 cell line screen, 48 h
M19-MEL melanoma = system: M19-MEL melanoma
RXF-631 renal = system: RXF-631 renal
HOP-62 NSCLC = system: HOP-62 NSCLC
TK-10 renal = system: TK-10 renal
XF 498 CNS = system: XF 498 CNS
SF-295 CNS = system: SF-295 CNS
IGROV1 ovarian = system: IGROV1 ovarian
MALME-3M melanoma = system: MALME-3M melanoma
DMS 273 small cell lung = system: DMS 273 small cell lung
SF-268 CNS = system: SF-268 CNS
HOP-92 NSCLC = system: HOP-92 NSCLC
786-0 renal = system: 786-0 renal
EKVX NSCLC = system: EKVX NSCLC
SK-OV-3 ovarian = system: SK-OV-3 ovarian
K-562 leukemia = system: K-562 leukemia
UO-31 renal = system: UO-31 renal
U251 CNS = system: U251 CNS
COLO 205 colon = system: COLO 205 colon
HL-60(TB) leukemia = system: HL-60(TB) leukemia
SNB-19 CNS = system: SNB-19 CNS
HOP-18 NSCLC = system: HOP-18 NSCLC
RXF 393 renal = system: RXF 393 renal
HCC-2998 colon = system: HCC-2998 colon
LXFL 529 NSCLC = system: LXFL 529 NSCLC
SN12C renal = system: SN12C renal
CAKI-1 renal = system: CAKI-1 renal
SNB-78 CNS = system: SNB-78 CNS
NCI-H23 lung = system: NCI-H23 lung
ACHN renal = system: ACHN renal
UACC-62 melanoma = system: UACC-62 melanoma
OVCAR-3 ovarian = system: OVCAR-3 ovarian
HCT-15 colon = system: HCT-15 colon
KM20L2 colon = system: KM20L2 colon
DMS 114 small cell lung = system: DMS 114 small cell lung
LOX IMVI melanoma = system: LOX IMVI melanoma
M14 melanoma = system: M14 melanoma
NCI-H460 lung = system: NCI-H460 lung
SK-MEL-28 melanoma = system: SK-MEL-28 melanoma
OVCAR-8 ovarian = system: OVCAR-8 ovarian
HT29 colon = system: HT29 colon
DLD-1 colon = system: DLD-1 colon
A549 NSCLC = system: A549 NSCLC
OVCAR-4 ovarian = system: OVCAR-4 ovarian
SW-620 colon = system: SW-620 colon
SK-MEL-2 melanoma = system: SK-MEL-2 melanoma
A498 renal = system: A498 renal
NCI-H226 lung = system: NCI-H226 lung
MOLT-4 leukemia = system: MOLT-4 leukemia
SNB-75 CNS = system: SNB-75 CNS
RPMI-8226 leukemia = system: RPMI-8226 leukemia
KM12 colon = system: KM12 colon
SF-539 CNS = system: SF-539 CNS
NCI-H522 lung = system: NCI-H522 lung
CCRF-CEM leukemia = system: CCRF-CEM leukemia
UACC-257 melanoma = system: UACC-257 melanoma
HCT-116 colon = system: HCT-116 colon
OVCAR-5 ovarian = system: OVCAR-5 ovarian
SK-MEL-5 melanoma = system: SK-MEL-5 melanoma

Compound `Sc1ccccc1S` has a TGI (M19-MEL melanoma) of over 100 µM, a TGI (RXF-631 renal) of over 100 µM and a TGI (HOP-62 NSCLC) of over 100 µM. For the same compound, the TGI (TK-10 renal) was over 10 µM, the TGI (XF 498 CNS) was over 100 µM and the TGI (SF-295 CNS) was over 100 µM. For the same compound, the TGI (IGROV1 ovarian) was over 100 µM, the TGI (MALME-3M melanoma) was over 100 µM and the TGI (DMS 273 small cell lung) was over 100 µM. For the same compound, the TGI (SF-268 CNS) was over 100 µM, the TGI (HOP-92 NSCLC) was over 100 µM and the TGI (786-0 renal) was over 100 µM. It also gave a TGI (EKVX NSCLC) of over 10 µM, a TGI (SK-OV-3 ovarian) of over 100 µM and a TGI (K-562 leukemia) of over 100 µM. It also gave a TGI (UO-31 renal) of over 10 µM, a TGI (U251 CNS) of over 100 µM and a TGI (COLO 205 colon) of over 100 µM. It also gave a TGI (HL-60(TB) leukemia) of over 100 µM, a TGI (SNB-19 CNS) of over 100 µM and a TGI (HOP-18 NSCLC) of over 100 µM. It also gave a TGI (RXF 393 renal) of over 100 µM, a TGI (HCC-2998 colon) of over 100 µM and a TGI (LXFL 529 NSCLC) of over 100 µM. For the same compound, the TGI (SN12C renal) was over 100 µM, the TGI (CAKI-1 renal) was over 100 µM and the TGI (SNB-78 CNS) was over 100 µM. For the same compound, the TGI (NCI-H23 lung) was over 100 µM, the TGI (ACHN renal) was over 100 µM and the TGI (UACC-62 melanoma) was over 100 µM. The TGI (OVCAR-3 ovarian) was over 100 µM, the TGI (HCT-15 colon) was over 100 µM and the TGI (KM20L2 colon) was over 100 µM. For the same compound, the TGI (DMS 114 small cell lung) was over 100 µM, the TGI (LOX IMVI melanoma) was over 100 µM and the TGI (M14 melanoma) was over 100 µM. For the same compound, the TGI (NCI-H460 lung) was over 100 µM, the TGI (SK-MEL-28 melanoma) was over 100 µM and the TGI (OVCAR-8 ovarian) was over 10 µM. It also gave a TGI (HT29 colon) of over 100 µM, a TGI (DLD-1 colon) of over 100 µM and a TGI (A549 NSCLC) of over 100 µM. The TGI (OVCAR-4 ovarian) was over 100 µM and the TGI (SW-620 colon) was over 100 µM.

Work on `CC1=C(C(=O)Nc2ccc([N+](=O)[O-])cc2)C(c2cccc([N+](=O)[O-])c2)C(C(=O)Nc2ccc([N+](=O)[O-])cc2)=C(C)N1` yielded a TGI (M19-MEL melanoma) of over 100 µM, a TGI (RXF-631 renal) of over 100 µM and a TGI (SK-MEL-2 melanoma) of over 100 µM. For the same compound, the TGI (HOP-62 NSCLC) was over 100 µM, the TGI (A498 renal) was over 100 µM and the TGI (TK-10 renal) was over 100 µM. For the same compound, the TGI (XF 498 CNS) was 41.3 µM, the TGI (SF-295 CNS) was over 100 µM and the TGI (IGROV1 ovarian) was over 100 µM. It also gave a TGI (NCI-H226 lung) of over 100 µM, a TGI (MALME-3M melanoma) of over 100 µM and a TGI (SF-268 CNS) of over 100 µM. It also gave a TGI (HOP-92 NSCLC) of 39 µM, a TGI (786-0 renal) of over 100 µM and a TGI (EKVX NSCLC) of over 100 µM. The TGI (MOLT-4 leukemia) was over 100 µM, the TGI (SK-OV-3 ovarian) was 71.6 µM and the TGI (K-562 leukemia) was over 100 µM. For the same compound, the TGI (UO-31 renal) was over 100 µM, the TGI (U251 CNS) was over 100 µM and the TGI (COLO 205 colon) was over 100 µM. For the same compound, the TGI (SNB-75 CNS) was over 100 µM, the TGI (RPMI-8226 leukemia) was over 100 µM and the TGI (HL-60(TB) leukemia) was over 100 µM. It also gave a TGI (SNB-19 CNS) of over 100 µM, a TGI (HOP-18 NSCLC) of over 100 µM and a TGI (RXF 393 renal) of over 100 µM. The TGI (HCC-2998 colon) was over 100 µM, the TGI (LXFL 529 NSCLC) was over 100 µM and the TGI (SN12C renal) was over 100 µM. The TGI (SNB-78 CNS) was over 100 µM, the TGI (NCI-H23 lung) was 66.4 µM and the TGI (KM12 colon) was over 100 µM. It also gave a TGI (SF-539 CNS) of over 100 µM, a TGI (ACHN renal) of over 100 µM and a TGI (NCI-H522 lung) of over 100 µM. It also gave a TGI (UACC-62 melanoma) of over 100 µM, a TGI (OVCAR-3 ovarian) of over 100 µM and a TGI (CCRF-CEM leukemia) of over 100 µM. The TGI (UACC-257 melanoma) was 56.1 µM, the TGI (HCT-15 colon) was over 100 µM and the TGI (KM20L2 colon) was over 100 µM. For the same compound, the TGI (DMS 114 small cell lung) was over 100 µM, the TGI (LOX IMVI melanoma) was over 100 µM and the TGI (M14 melanoma) was over 100 µM. The TGI (NCI-H460 lung) was over 100 µM, the TGI (HCT-116 colon) was over 100 µM and the TGI (SK-MEL-28 melanoma) was over 100 µM. For the same compound, the TGI (OVCAR-8 ovarian) was over 100 µM, the TGI (HT29 colon) was over 100 µM and the TGI (OVCAR-5 ovarian) was over 100 µM. For the same compound, the TGI (DLD-1 colon) was over 100 µM, the TGI (A549 NSCLC) was over 100 µM and the TGI (OVCAR-4 ovarian) was over 100 µM. For the same compound, the TGI (SW-620 colon) was over 100 µM.

With `COC(=O)CCC1=NOC(CC2CC(CCC(=O)OC)=NO2)C1` (stereo not given) the TGI (M19-MEL melanoma) was over 100 µM, the TGI (RXF-631 renal) was over 100 µM and the TGI (SK-MEL-2 melanoma) was over 100 µM. For the same compound, the TGI (HOP-62 NSCLC) was over 100 µM, the TGI (A498 renal) was over 100 µM and the TGI (TK-10 renal) was over 100 µM. The TGI (XF 498 CNS) was over 100 µM, the TGI (SF-295 CNS) was over 100 µM and the TGI (IGROV1 ovarian) was over 100 µM. For the same compound, the TGI (NCI-H226 lung) was over 100 µM, the TGI (MALME-3M melanoma) was over 100 µM and the TGI (DMS 273 small cell lung) was over 100 µM. It also gave a TGI (SF-268 CNS) of over 100 µM, a TGI (HOP-92 NSCLC) of over 100 µM and a TGI (786-0 renal) of over 100 µM. It also gave a TGI (EKVX NSCLC) of over 100 µM, a TGI (MOLT-4 leukemia) of over 100 µM and a TGI (SK-OV-3 ovarian) of over 100 µM. The TGI (K-562 leukemia) was over 100 µM, the TGI (UO-31 renal) was over 100 µM and the TGI (U251 CNS) was over 100 µM. For the same compound, the TGI (COLO 205 colon) was over 100 µM, the TGI (SNB-75 CNS) was over 100 µM and the TGI (RPMI-8226 leukemia) was over 100 µM. For the same compound, the TGI (HL-60(TB) leukemia) was over 100 µM, the TGI (SNB-19 CNS) was over 100 µM and the TGI (HOP-18 NSCLC) was over 100 µM. For the same compound, the TGI (RXF 393 renal) was over 100 µM, the TGI (HCC-2998 colon) was over 100 µM and the TGI (LXFL 529 NSCLC) was over 100 µM. The TGI (SN12C renal) was over 100 µM, the TGI (CAKI-1 renal) was over 100 µM and the TGI (SNB-78 CNS) was over 100 µM. The TGI (NCI-H23 lung) was over 100 µM, the TGI (KM12 colon) was over 100 µM and the TGI (SF-539 CNS) was over 100 µM. It also gave a TGI (SK-MEL-5 melanoma) of over 100 µM, a TGI (NCI-H522 lung) of over 100 µM and a TGI (UACC-62 melanoma) of over 100 µM. The TGI (OVCAR-3 ovarian) was over 100 µM, the TGI (CCRF-CEM leukemia) was over 100 µM and the TGI (UACC-257 melanoma) was over 100 µM. For the same compound, the TGI (HCT-15 colon) was over 100 µM, the TGI (KM20L2 colon) was over 100 µM and the TGI (DMS 114 small cell lung) was over 100 µM. The TGI (LOX IMVI melanoma) was over 100 µM, the TGI (M14 melanoma) was over 100 µM and the TGI (NCI-H460 lung) was over 100 µM. For the same compound, the TGI (HCT-116 colon) was over 100 µM, the TGI (OVCAR-8 ovarian) was over 100 µM and the TGI (HT29 colon) was over 100 µM. For the same compound, the TGI (OVCAR-5 ovarian) was over 100 µM, the TGI (DLD-1 colon) was over 100 µM and the TGI (A549 NSCLC) was over 100 µM. The TGI (OVCAR-4 ovarian) was over 100 µM and the TGI (SW-620 colon) was over 100 µM.
